The subject of data set [1] is Staphylococcus aureus. Description: Antibacterial activity against Staphylococcus aureus ATCC 35556 assessed as planktonic growth. Format: organism-based.
In data set [2] the test system is Staphylococcus epidermidis. Description: Antibacterial activity against Staphylococcus epidermidis 1457 assessed as planktonic growth at 50 ug/ml. In kind it is organism-based.
Data set [3] has as its system Staphylococcus epidermidis. Briefly: Antibacterial activity against Staphylococcus epidermidis GTC 18972 assessed as planktonic growth at 50 ug/ml. In kind it is organism-based.
For data set [4], the system named is Staphylococcus epidermidis. Briefly: Antibacterial activity against Staphylococcus epidermidis 1457 assessed as planktonic growth. Format: organism-based.
The subject of data set [5] is Staphylococcus aureus. Description: Antibacterial activity against methicillin-resistant Staphylococcus aureus 1094 assessed as planktonic growth at 50 ug/ml. In kind it is organism-based.
The subject of data set [6] is Staphylococcus aureus. Briefly: Antibacterial activity against methicillin-resistant Staphylococcus aureus assessed as planktonic growth at 50 ug/ml. In kind it is organism-based. The note with it: in vitro.
Data set [7] relates to Staphylococcus aureus. Description: Antibiofilm activity against methicillin-resistant Staphylococcus aureus assessed as inhibition of biofilm formation at 50 ug/ml. Format: functional.
Data set [8] concerns Staphylococcus epidermidis. Briefly: Antibiofilm activity against Staphylococcus epidermidis GTC 18972 assessed as inhibition of biofilm formation at 50 ug/ml. Format: functional.
Data set [9] deals with Pseudomonas aeruginosa. Briefly: Antibacterial activity against Pseudomonas aeruginosa PAO1 assessed as planktonic growth. In kind it is organism-based.
Data set [10] has as its system Staphylococcus aureus. Description: Antibiofilm activity against Staphylococcus aureus ATCC 35556 assessed as inhibition of biofilm formation at 50 ug/ml. In kind it is functional.
Data set [11] concerns Pseudomonas aeruginosa. Description: Antibiofilm activity against Pseudomonas aeruginosa PAO1 assessed as inhibition of biofilm formation. In kind it is functional, organism-based.
Data set [12] concerns Pseudomonas aeruginosa. Briefly: Antibiofilm activity against Pseudomonas aeruginosa PAO1 assessed as inhibition of biofilm formation at 50 ug/ml. Format: functional.
Data set [13] relates to Staphylococcus aureus. Description: Antibiofilm activity against Staphylococcus aureus ATCC 35556 assessed as inhibition of biofilm formation. Format: functional.
Data set [14] deals with Staphylococcus aureus. Description: Antibacterial activity against Staphylococcus aureus ATCC 35556 assessed as planktonic growth at 50 ug/ml. In kind it is organism-based.
For data set [15], the system named is Staphylococcus aureus. Briefly: Antibiofilm activity against methicillin-resistant Staphylococcus aureus 1094 assessed as inhibition of biofilm formation. In kind it is functional.
The subject of data set [16] is Staphylococcus epidermidis. Briefly: Antibiofilm activity against Staphylococcus epidermidis 1457 assessed as inhibition of biofilm formation. In kind it is functional.
The test system of data set [17] is Staphylococcus epidermidis. Briefly: Antibiofilm activity against Staphylococcus epidermidis 1457 assessed as inhibition of biofilm formation at 50 ug/ml. Format: functional.
Data set [18] is described as follows: Cytotoxicity against human HeLa cells. In kind it is cell-based.
The test system of data set [19] is Staphylococcus epidermidis. Briefly: Antibacterial activity against Staphylococcus epidermidis GTC 18972 assessed as planktonic growth. Format: organism-based.
The test system of data set [20] is Staphylococcus epidermidis. Briefly: Antibiofilm activity against Staphylococcus epidermidis GTC 18972 assessed as inhibition of biofilm formation. In kind it is functional.
In data set [21] the test system is Staphylococcus aureus. Description: Antibiofilm activity against methicillin-resistant Staphylococcus aureus 1094 assessed as inhibition of biofilm formation at 50 ug/ml. Format: functional.
In data set [22] the test system is Pseudomonas aeruginosa. Briefly: Antibacterial activity against Pseudomonas aeruginosa PAO1 assessed as planktonic growth at 50 ug/ml. Format: organism-based.

The values below come from ChEMBL document CHEMBL3132815, “Design, synthesis and activities of 4/5-acyl-2-aminoimidazolyl analogues of oroidin for biofilm inhibition” (Medchemcomm, 2013).

Molecules are shown by their SMILES. Converted amounts (≈) assume the structure as drawn.

With `Nc1ncc(C(=O)CCNC(=O)c2ccc[nH]2)[nH]1`, the MIC in the data set with Staphylococcus aureus [1] amounted to 25 µg/mL (≈ 101 µM); in [4], 12.5 µg/mL (≈ 50.6 µM); in the data set on Pseudomonas aeruginosa [9] it was 50 µg/mL (≈ 202 µM); in data set [19], 12.5 µg/mL (≈ 50.6 µM). The Activity in data set [2] turned out to be 81.58%; in [3] it was 81.99%; in the data set on Staphylococcus aureus [5], 86.98%; in the data set on Staphylococcus aureus [6], 85.37%; in the data set on Staphylococcus aureus [14] it was 79.94%; in the data set with Pseudomonas aeruginosa [22], 86.17%. The inhibition at 50 µg/mL in the data set on Staphylococcus aureus [7] was determined as 88.4%; in data set [8], 97.8%; with Staphylococcus aureus [10] it was 98.1%; in the data set with Pseudomonas aeruginosa [12], 92%; in [17] it was 98%; in the data set on Staphylococcus aureus [21] it was 86.2%. The MBIC amounted to 50 µg/mL in the data set with Pseudomonas aeruginosa [11]; 6.25 µg/mL with Staphylococcus aureus [13]; 12.5 µg/mL in the data set on Staphylococcus aureus [15]; 6.25 µg/mL in [16]; 6.25 µg/mL in data set [20]. In data set [18], the midpoint of cytotoxicity, the CC50, lay at 101 µg/mL (≈ 410 µM).

The term inhibition denotes the percentage by which the read-out fell short of the control. As a reminder, the CC50 is the concentration that lowers cell viability or growth by half. High values mean lower toxicity to the cells, low ones greater toxicity to the cells.
